Test results from patent publication US12568972B2, “Pyridazinol compounds and derivatives, preparation methods, herbicidal compositions and applications thereof” (Qingdao Kingagroot Chemical Compound Co., Ltd., priority 2018, dated 2026).

Key:
Test in all cases: Post-emergence test, weed control effect
Assay type in all cases: in vivo
Galium aparine = settings: 504 h, after 3 weeks, fresh weight inhibition, read-out: activity level of harmful plant destruction (growth inhibition rate), Galium aparine
Summary of the method: (§1)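 Seeds are sown in soil pots and raised in the greenhouse until the 2-3 leaf stage. Plants are then sprayed with compound dissolved in acetone with Tween-80, diluted in water and supplemented with 80% vegetable oil methyl ester synergist at 1500 g/ha, and fresh weight inhibition is rated 0-10 three weeks later.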

Setaria viridis = settings: 504 h, after 3 weeks, fresh weight inhibition, read-out: activity level of harmful plant destruction (growth inhibition rate), Setaria viridis
Summary of the method: as §1

Echinochloa crus-galli = settings: 504 h, after 3 weeks, fresh weight inhibition, read-out: activity level of harmful plant destruction (growth inhibition rate), Echinochloa crus-galli
Summary of the method: as §1

Chenopodiaceae = settings: after 3 weeks; for inhibition at 150 g/ha / inhibition at 300 g/ha: 504 h, fresh weight inhibition, read-out: activity level of harmful plant destruction (growth inhibition rate), Chenopodiaceae
Summary of the method: as §1

Veronica polita = settings: after 3 weeks; for inhibition at 150 g/ha / inhibition at 300 g/ha: Veronica polita, 504 h, fresh weight inhibition, read-out: activity level of harmful plant destruction (growth inhibition rate), Veronica polita
Summary of the method: as §1

Rorippa indica = settings: after 3 weeks; for inhibition at 150 g/ha / inhibition at 300 g/ha: Rorippa indica, 504 h, fresh weight inhibition, read-out: activity level of harmful plant destruction (growth inhibition rate), Rorippa indica
Summary of the method: as §1

Amaranthus retroflexus = settings: after 3 weeks
Summary of the method: as §1

CCCCCCCCOC(=O)Oc1cc(C(F)(F)F)nnc1-c1ccc(F)cc1 [Compound 1-39]
inhibition at 150 g/ha (Galium aparine): 100%
inhibition at 150 g/ha (Setaria viridis): 100%
inhibition at 150 g/ha (Echinochloa crus-galli): 100%
inhibition at 150 g/ha (Chenopodiaceae): 100%
weed control effect, Chenopodiaceae (activity level) (Chenopodiaceae; Dose 3000 g/ha): 10
weed control effect, Veronica polita (activity level) (Veronica polita; Dose 3000 g/ha): 10
inhibition at 150 g/ha (Veronica polita): 100%
weed control effect, Rorippa indica (activity level) (Rorippa indica; Dose 3000 g/ha): 10
inhibition at 150 g/ha (Rorippa indica): 100%
weed control effect, Amaranthus retroflexus (activity level) (Amaranthus retroflexus; Dose 3000 g/ha): 10

CCCSC(=O)Oc1cc(C(F)(F)F)nnc1-c1ccc(F)cc1 [Compound 1-43]
inhibition at 150 g/ha (Galium aparine): 100%
inhibition at 150 g/ha (Setaria viridis): 100%
inhibition at 150 g/ha (Echinochloa crus-galli): 100%
inhibition at 150 g/ha (Chenopodiaceae): 100%
weed control effect, Chenopodiaceae (activity level) (Chenopodiaceae; Dose 3000 g/ha): 10
weed control effect, Veronica polita (activity level) (Veronica polita; Dose 3000 g/ha): 10
inhibition at 150 g/ha (Veronica polita): 100%
weed control effect, Rorippa indica (activity level) (Rorippa indica; Dose 3000 g/ha): 10
inhibition at 150 g/ha (Rorippa indica): 100%
weed control effect, Amaranthus retroflexus (activity level) (Amaranthus retroflexus; Dose 3000 g/ha): 10

CCCCCCCCSC(=O)Oc1cc(C(F)(F)F)nnc1-c1ccc(F)c(F)c1 [Compound 1-55]
inhibition at 150 g/ha (Galium aparine): 100%
inhibition at 150 g/ha (Setaria viridis): 100%
inhibition at 150 g/ha (Echinochloa crus-galli): 100%
inhibition at 150 g/ha (Chenopodiaceae): 100%
weed control effect, Chenopodiaceae (activity level) (Chenopodiaceae; Dose 3000 g/ha): 10
weed control effect, Veronica polita (activity level) (Veronica polita; Dose 3000 g/ha): 10
inhibition at 150 g/ha (Veronica polita): 100%
weed control effect, Rorippa indica (activity level) (Rorippa indica; Dose 3000 g/ha): 10
inhibition at 150 g/ha (Rorippa indica): 100%
weed control effect, Amaranthus retroflexus (activity level) (Amaranthus retroflexus; Dose 3000 g/ha): 10

N#Cc1ccc(-c2nnc(C(F)(F)F)cc2OC(=O)c2ccc(Cl)cc2)cc1 [Compound 1-82]
inhibition at 150 g/ha (Galium aparine): 70 to 80%
inhibition at 150 g/ha (Setaria viridis): 100%
inhibition at 150 g/ha (Echinochloa crus-galli): 70 to 80%
inhibition at 150 g/ha (Chenopodiaceae): 100%
weed control effect, Chenopodiaceae (activity level) (Chenopodiaceae; Dose 3000 g/ha): 10
weed control effect, Veronica polita (activity level) (Veronica polita; Dose 3000 g/ha): 10
inhibition at 150 g/ha (Veronica polita): 80 to 90%
weed control effect, Rorippa indica (activity level) (Rorippa indica; Dose 3000 g/ha): 10
inhibition at 150 g/ha (Rorippa indica): 100%
weed control effect, Amaranthus retroflexus (activity level) (Amaranthus retroflexus; Dose 3000 g/ha): 10

N#Cc1ccccc1C(=O)Oc1cc(C(F)(F)F)nnc1-c1ccc(F)c(F)c1 [Compound 1-86]
inhibition at 150 g/ha (Galium aparine): 100%
inhibition at 150 g/ha (Setaria viridis): 100%
inhibition at 150 g/ha (Echinochloa crus-galli): 100%
inhibition at 150 g/ha (Chenopodiaceae): 100%
weed control effect, Chenopodiaceae (activity level) (Chenopodiaceae; Dose 3000 g/ha): 10
weed control effect, Veronica polita (activity level) (Veronica polita; Dose 3000 g/ha): 10
inhibition at 150 g/ha (Veronica polita): 100%
weed control effect, Rorippa indica (activity level) (Rorippa indica; Dose 3000 g/ha): 10
inhibition at 150 g/ha (Rorippa indica): 100%
weed control effect, Amaranthus retroflexus (activity level) (Amaranthus retroflexus; Dose 3000 g/ha): 10

Oc1cc(C(F)(F)F)nnc1-c1ccc(F)cc1 [Compound 32]
inhibition at 300 g/ha (Galium aparine): 100%
inhibition at 300 g/ha (Setaria viridis): 100%
inhibition at 300 g/ha (Echinochloa crus-galli): 100%
inhibition at 300 g/ha (Chenopodiaceae): 100%
weed control effect (activity level), Chenopodiaceae (Chenopodiaceae; dose 1000 g/ha): 10
inhibition at 300 g/ha (Veronica polita): 100%
weed control effect (activity level), Veronica polita (Veronica polita; dose 1000 g/ha): 10
inhibition at 300 g/ha (Rorippa indica): 100%
weed control effect (activity level), Rorippa indica (Rorippa indica; dose 1000 g/ha): 10
weed control effect (activity level), Amaranthus retroflexus (Amaranthus retroflexus; dose 1000 g/ha): 10

Oc1cc(C(F)(F)F)nnc1-c1cc(F)cc(F)c1 [Compound 35]
inhibition at 300 g/ha (Galium aparine): 90 to 100%
inhibition at 300 g/ha (Setaria viridis): 100%
inhibition at 300 g/ha (Echinochloa crus-galli): 100%
inhibition at 300 g/ha (Chenopodiaceae): 100%
weed control effect (activity level), Chenopodiaceae (Chenopodiaceae; dose 1000 g/ha): 10
inhibition at 300 g/ha (Veronica polita): 100%
weed control effect (activity level), Veronica polita (Veronica polita; dose 1000 g/ha): 10
inhibition at 300 g/ha (Rorippa indica): 100%
weed control effect (activity level), Rorippa indica (Rorippa indica; dose 1000 g/ha): 10
weed control effect (activity level), Amaranthus retroflexus (Amaranthus retroflexus; dose 1000 g/ha): 10

Oc1cc(C(F)(F)F)nnc1-c1ccc(C(F)(F)F)cc1F [Compound 51]
inhibition at 300 g/ha (Galium aparine): 80 to 90%
inhibition at 300 g/ha (Setaria viridis): 90 to 100%
inhibition at 300 g/ha (Echinochloa crus-galli): 60 to 70%
inhibition at 300 g/ha (Chenopodiaceae): 100%
weed control effect (activity level), Chenopodiaceae (Chenopodiaceae; dose 1000 g/ha): 10
inhibition at 300 g/ha (Veronica polita): 90 to 100%
weed control effect (activity level), Veronica polita (Veronica polita; dose 1000 g/ha): 10
inhibition at 300 g/ha (Rorippa indica): 100%
weed control effect (activity level), Rorippa indica (Rorippa indica; dose 1000 g/ha): 10
weed control effect (activity level), Amaranthus retroflexus (Amaranthus retroflexus; dose 1000 g/ha): 10

Oc1cc(C(F)(F)F)nnc1-c1cccnc1 [Compound 202]
inhibition at 300 g/ha (Galium aparine): 100%
inhibition at 300 g/ha (Setaria viridis): 100%
inhibition at 300 g/ha (Echinochloa crus-galli): 70 to 80%
inhibition at 300 g/ha (Chenopodiaceae): 100%
weed control effect (activity level), Chenopodiaceae (Chenopodiaceae; dose 2000 g/ha): 10
inhibition at 300 g/ha (Veronica polita): 80 to 90%
weed control effect (activity level), Veronica polita (Veronica polita; dose 2000 g/ha): 10
inhibition at 300 g/ha (Rorippa indica): 100%
weed control effect (activity level), Rorippa indica (Rorippa indica; dose 2000 g/ha): 10
weed control effect (activity level), Amaranthus retroflexus (Amaranthus retroflexus; dose 2000 g/ha): 10

Oc1cc(C(F)(F)F)nnc1-c1ccnc(F)c1 [Compound 206]
inhibition at 300 g/ha (Galium aparine): 100%
inhibition at 300 g/ha (Setaria viridis): 100%
inhibition at 300 g/ha (Echinochloa crus-galli): 100%
inhibition at 300 g/ha (Chenopodiaceae): 100%
weed control effect (activity level), Chenopodiaceae (Chenopodiaceae; dose 2000 g/ha): 10
inhibition at 300 g/ha (Veronica polita): 100%
weed control effect (activity level), Veronica polita (Veronica polita; dose 2000 g/ha): 10
inhibition at 300 g/ha (Rorippa indica): 100%
weed control effect (activity level), Rorippa indica (Rorippa indica; dose 2000 g/ha): 10
weed control effect (activity level), Amaranthus retroflexus (Amaranthus retroflexus; dose 2000 g/ha): 10

Oc1cc(C(F)(F)F)nnc1-c1ccc(F)nc1 [Compound 207]
inhibition at 300 g/ha (Galium aparine): 100%
inhibition at 300 g/ha (Setaria viridis): 100%
inhibition at 300 g/ha (Echinochloa crus-galli): 100%
inhibition at 300 g/ha (Chenopodiaceae): 100%
weed control effect (activity level), Chenopodiaceae (Chenopodiaceae; dose 2000 g/ha): 10
inhibition at 300 g/ha (Veronica polita): 100%
weed control effect (activity level), Veronica polita (Veronica polita; dose 2000 g/ha): 10
inhibition at 300 g/ha (Rorippa indica): 100%
weed control effect (activity level), Rorippa indica (Rorippa indica; dose 2000 g/ha): 10
weed control effect (activity level), Amaranthus retroflexus (Amaranthus retroflexus; dose 2000 g/ha): 10

Oc1cc(C(F)(F)F)nnc1-c1ccc(F)nc1F [Compound 220]
inhibition at 300 g/ha (Galium aparine): 100%
inhibition at 300 g/ha (Setaria viridis): 100%
inhibition at 300 g/ha (Echinochloa crus-galli): 100%
inhibition at 300 g/ha (Chenopodiaceae): 100%
weed control effect (activity level), Chenopodiaceae (Chenopodiaceae; dose 2000 g/ha): 10
inhibition at 300 g/ha (Veronica polita): 100%
weed control effect (activity level), Veronica polita (Veronica polita; dose 2000 g/ha): 10
inhibition at 300 g/ha (Rorippa indica): 100%
weed control effect (activity level), Rorippa indica (Rorippa indica; dose 2000 g/ha): 10
weed control effect (activity level), Amaranthus retroflexus (Amaranthus retroflexus; dose 2000 g/ha): 10

Oc1cc(C(F)(F)F)nnc1-c1cccnc1F [Compound 733]
inhibition at 300 g/ha (Galium aparine): 100%
inhibition at 300 g/ha (Setaria viridis): 100%
inhibition at 300 g/ha (Echinochloa crus-galli): 100%
inhibition at 300 g/ha (Chenopodiaceae): 100%
weed control effect (activity level), Chenopodiaceae (Chenopodiaceae; dose 1000 g/ha): 10
inhibition at 300 g/ha (Veronica polita): 100%
weed control effect (activity level), Veronica polita (Veronica polita; dose 1000 g/ha): 10
inhibition at 300 g/ha (Rorippa indica): 100%
weed control effect (activity level), Rorippa indica (Rorippa indica; dose 1000 g/ha): 10
weed control effect (activity level), Amaranthus retroflexus (Amaranthus retroflexus; dose 1000 g/ha): 10

Oc1cc(C(F)(F)F)nnc1-c1ccc(Cl)cc1 [Compound 739]
inhibition at 300 g/ha (Galium aparine): 80 to 90%
inhibition at 300 g/ha (Setaria viridis): 100%
inhibition at 300 g/ha (Echinochloa crus-galli): 100%
inhibition at 300 g/ha (Chenopodiaceae): 100%
weed control effect (activity level), Chenopodiaceae (Chenopodiaceae; Dose 3000 g/ha): 10
weed control effect (activity level), Veronica polita (Veronica polita; Dose 3000 g/ha): 10
inhibition at 300 g/ha (Veronica polita): 100%
weed control effect (activity level), Rorippa indica (Rorippa indica; Dose 3000 g/ha): 10
inhibition at 300 g/ha (Rorippa indica): 100%
weed control effect (activity level), Amaranthus retroflexus (Amaranthus retroflexus; Dose 3000 g/ha): 10

Oc1cc(C(F)(F)F)nnc1-c1ccc(F)c(Cl)c1 [Compound 740]
inhibition at 300 g/ha (Galium aparine): 100%
inhibition at 300 g/ha (Setaria viridis): 100%
inhibition at 300 g/ha (Echinochloa crus-galli): 100%
inhibition at 300 g/ha (Chenopodiaceae): 100%
weed control effect (activity level), Chenopodiaceae (Chenopodiaceae; Dose 3000 g/ha): 10
weed control effect (activity level), Veronica polita (Veronica polita; Dose 3000 g/ha): 10
inhibition at 300 g/ha (Veronica polita): 100%
weed control effect (activity level), Rorippa indica (Rorippa indica; Dose 3000 g/ha): 10
inhibition at 300 g/ha (Rorippa indica): 100%
weed control effect (activity level), Amaranthus retroflexus (Amaranthus retroflexus; Dose 3000 g/ha): 10

C=CCOc1cc(C(F)(F)F)nnc1-c1ccccc1 [E, reference compound]
inhibition at 300 g/ha (Galium aparine): 0%
inhibition at 300 g/ha (Setaria viridis): 0%
inhibition at 300 g/ha (Echinochloa crus-galli): 0%
inhibition at 300 g/ha (Chenopodiaceae): 0 to 20%
inhibition at 300 g/ha (Veronica polita): 0%
inhibition at 300 g/ha (Rorippa indica): 0 to 20%
